Patent US20230085307A1, “PYRIDAZINONE COMPOUND AND HERBICIDE” (NISSAN CHEMICAL CORPORATION, priority 2019, published 2023)

Columns and labels:
[1] = test system: oval-leafed pondweed; assay: Test Example 1: herbicidal activity, application before weed generation under submerged conditions (Table 16, symbol C); assay type: in vivo, oval-leafed pondweed (Monochoria vaginalis); details: for Herbicidal effect on C: oval-leafed pondweed (grade 0-5): 320 g/ha applied herbicide
Method in brief: (§1)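 Emulsion formulation, water-diluted to set dose, was put onto the flooded surface (4 cm depth, alluvial soil) the same day weeds were sown and 2.5-leaf rice transplanted. After 3 weeks at 25-30 °C under glass, each species was rated 0 (≤5% kill) to 5 (≥90% kill).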

[2] = test system: blackgrass; assay: Test Example 4: herbicidal effect by soil treatment (Table 19, symbol J); assay type: in vivo, blackgrass (Alopecurus myosuroides); details: for herbicidal effect rating, J: blackgrass: 320 g/ha
Method in brief: (§2)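 Three weeks of greenhouse growth at 25° C. to 30° C. followed a uniform surface spray of water-diluted emulsion at a predetermined herbicide amount. Seeds had been sown beforehand under about 1.5 cm of sterilized diluvial soil. Grading followed criteria set out in an earlier test.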

[3] = test system: barnyard grass; assay: Test Example 5: herbicidal effect by foliage application, plastic box (Table 20, symbol H); assay type: in vivo, barnyard grass (Echinochloa crus-galli); details: foliage application; for effect on barnyard grass (H): 3 weeks after application
Method in brief: (§3)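 Plants sown in sterilized diluvial soil and grown 14 days in a greenhouse at 25° C to 30° C, then sprayed on the foliage with the compound's emulsion diluted in water to a predetermined herbicide amount. Injury to weeds and crops scored three weeks after application on a visual rating scale.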

[4] = test system: lambsquarters; assay: Test Example 5: herbicidal effect by foliage application, plastic box (Table 20, symbol O); assay type: in vivo, lambsquarters (Chenopodium album); details: foliage application; for effect on lambsquarters (O): 3 weeks after application
Method in brief: as §3

[5] = test system: windgrass; assay: Test Example 4: herbicidal effect by soil treatment (Table 19, symbol L); assay type: in vivo, windgrass (Apera spica-venti); details: for herbicidal effect rating, L: windgrass: 320 g/ha
Method in brief: as §2

[6] = test system: Chinese sprangletop; assay: Test Example 3: herbicidal effect by foliage application, Wagner pot (Table 18, symbol D); assay type: in vivo, chinese sprangletop (Leptochloa chinensis); details: for herbicidal effect on D (Chinese sprangletop), rating 0-5: 320 g/ha
Method in brief: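 Plants were sown in alluvial soil held under 0.1–0.5 cm standing water and grown 14 days in a greenhouse at 25–30 °C. An emulsifiable formulation, water-diluted to the set dose, was then sprayed onto the foliage, and effects were scored three weeks later using previously defined criteria.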

[7] = test system: persian speedwell; assay: Test Example 4: herbicidal effect by soil treatment (Table 19, symbol R); assay type: in vivo, Persian speedwell (Veronica persica); details: for herbicidal effect rating, R: persian speedwell: 320 g/ha
Method in brief: as §2

[8] = test system: late watergrass; assay: Test Example 1: herbicidal activity, application before weed generation under submerged conditions (Table 16, symbol A); assay type: in vivo, late watergrass (Echinochloa oryzicola); details: for Herbicidal effect on A: late watergrass (grade 0-5): 320 g/ha applied herbicide
Method in brief: as §1

[9] = test system: Japanese bulrush; assay: Test Example 1: herbicidal activity, application before weed generation under submerged conditions (Table 16, symbol B); assay type: in vivo, Japanese bulrush (Schoenoplectus juncoides); details: for Herbicidal effect on B: Japanese bulrush (grade 0-5): 320 g/ha applied herbicide
Method in brief: as §1

[10] = test system: false cleavers; assay: Test Example 5: herbicidal effect by foliage application, plastic box (Table 20, symbol Q); assay type: in vivo, false cleavers (Galium spurium); details: foliage application; for effect on false cleavers (Q): 3 weeks after application
Method in brief: as §3

[11] = test system: oval-leafed pondweed; assay: Test Example 2: herbicidal activity, application during weed generation under submerged conditions (Table 17, symbol C); assay type: in vivo, oval-leafed pondweed (Monochoria vaginalis); details: application during weed generation, submerged conditions
Method in brief: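 In this pot test, flooded alluvial soil (water depth 4 cm) holds all three species sown as a mixture. Once seedlings have one to two leaves, the compound's emulsion, thinned with water to the intended dose, is poured on the water; grading follows after three weeks on the earlier criteria.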

[12] = test system: southern crabgrass; assay: Test Example 5: herbicidal effect by foliage application, plastic box (Table 20, symbol F); assay type: in vivo, southern crabgrass (Digitaria ciliaris); details: foliage application; for effect on southern crabgrass (F): 3 weeks after application
Method in brief: as §3

[13] = 320 g/ha, evaluated three weeks after application
[14] = amount of applied herbicide 320 g/ha
[15] = AAH 320 g/ha, evaluated three weeks after application
[16] = amount of applied herbicide 246 g/ha
[17] = 246 g/ha, three weeks after application

SMILES | Herbicidal effect on C: oval-leafed pondweed (grade 0-5) [1] | effect on barnyard grass (H) ([3]; 320 g/ha) | effect on lambsquarters (O) ([4]; 320 g/ha) | herbicidal effect on D (Chinese sprangletop), rating 0-5 [6] | Herbicidal effect on A: late watergrass (grade 0-5) [8] | Herbicidal effect on B: Japanese bulrush (grade 0-5) [9] | effect on false cleavers (Q) ([10]; 320 g/ha) | herbicidal effect rating, C: oval-leafed pondweed ([11]; AAH 320 g/ha) | effect on southern crabgrass (F) ([12]; 320 g/ha) | herbicidal effect rating, J: blackgrass [2] | herbicidal effect rating, L: windgrass [5] | herbicidal effect rating, R: persian speedwell [7] | also measured
Cc1nn(C)c(=O)c(-c2c(-c3ccc(F)cc3)sc3ccc(F)cc23)c1O [2-001] | 1 (Herbicidal rate of 5% or more and less than 20%) | 5 (Herbicidal rate of 90% or more (almost completely withered)) | 5 (Herbicidal rate of 90% or more (almost completely withered)) | 5 (Herbicidal rate of 90% or more (almost completely withered)) | 2 (Herbicidal rate of 20% or more and less than 40%) | 3 (Herbicidal rate of 40% or more and less than 70%) | 5 (Herbicidal rate of 90% or more (almost completely withered)) | 3 (Herbicidal rate of 40% or more and less than 70%) | 5 (Herbicidal rate of 90% or more (almost completely withered)) | – | – | – | J: blackgrass, herbicidal effect rating ([2]; AAH 320 g/ha): 2 (Herbicidal rate of 20% or more and less than 40%); L: windgrass, herbicidal effect rating ([5]; AAH 320 g/ha): 0 (Herbicidal rate of 5% or less (almost no effect)); R: persian speedwell, herbicidal effect rating ([7]; AAH 320 g/ha): 5 (Herbicidal rate of 90% or more (almost completely withered))
CCCOc1ccc(-c2sc3ccc(F)cc3c2-c2c(OC(=O)CCC)c(C)nn(C)c2=O)cc1 [2-033] | 4 (Herbicidal rate of 70% or more and less than 90%) | 5 (Herbicidal rate of 90% or more (almost completely withered)) | 5 (Herbicidal rate of 90% or more (almost completely withered)) | 1 (Herbicidal rate of 5% or more and less than 20%) | 4 (Herbicidal rate of 70% or more and less than 90%) | 5 (Herbicidal rate of 90% or more (almost completely withered)) | 5 (Herbicidal rate of 90% or more (almost completely withered)) | 4 (Herbicidal rate of 70% or more and less than 90%) | 2 (Herbicidal rate of 20% or more and less than 40%) | 0 (Herbicidal rate of 5% or less (almost no effect)) | 0 (Herbicidal rate of 5% or less (almost no effect)) | 4 (Herbicidal rate of 70% or more and less than 90%) | –
CCCC(=O)Oc1c(C)nn(C)c(=O)c1-c1c(-c2ccc(OC(C)C)cc2)sc2ccc(F)cc12 [2-035] | 4 (Herbicidal rate of 70% or more and less than 90%) | 5 (Herbicidal rate of 90% or more (almost completely withered)) | 3 (Herbicidal rate of 40% or more and less than 70%) | 0 (Herbicidal rate of 5% or less (almost no effect)) | 5 (Herbicidal rate of 90% or more (almost completely withered)) | 4 (Herbicidal rate of 70% or more and less than 90%) | 4 (Herbicidal rate of 70% or more and less than 90%) | 4 (Herbicidal rate of 70% or more and less than 90%) | 2 (Herbicidal rate of 20% or more and less than 40%) | 0 (Herbicidal rate of 5% or less (almost no effect)) | 0 (Herbicidal rate of 5% or less (almost no effect)) | 5 (Herbicidal rate of 90% or more (almost completely withered)) | –
CCCC(=O)Oc1c(C)nn(C)c(=O)c1-c1c(-c2ccc3c(c2)OCO3)sc2ccc(F)cc12 [2-091] | 5 (Herbicidal rate of 90% or more (almost completely withered)) | – | – | 3 (Herbicidal rate of 40% or more and less than 70%) | 3 (Herbicidal rate of 40% or more and less than 70%) | 4 (Herbicidal rate of 70% or more and less than 90%) | – | 4 (Herbicidal rate of 70% or more and less than 90%) | – | 0 (Herbicidal rate of 5% or less (almost no effect)) | 0 (Herbicidal rate of 5% or less (almost no effect)) | 4 (Herbicidal rate of 70% or more and less than 90%) | herbicidal effect on H: barnyard grass [3, 13]: 3 (Herbicidal rate of 40% or more and less than 70%); herbicidal effect on O: lambsquarters [4, 13]: 5 (Herbicidal rate of 90% or more (almost completely withered)); herbicidal effect on Q: false cleavers [10, 13]: 4 (Herbicidal rate of 70% or more and less than 90%); herbicidal effect on F: southern crabgrass [12, 13]: 2 (Herbicidal rate of 20% or more and less than 40%)
COc1cccc(S(=O)(=O)Oc2c(C)nn(C)c(=O)c2-c2c(-c3ccc(OC(F)F)cc3)sc3ccc(F)cc23)c1 [2-313] | 0 (Herbicidal rate of 5% or less (almost no effect)) | – | – | – | 2 (Herbicidal rate of 20% or more and less than 40%) | 3 (Herbicidal rate of 40% or more and less than 70%) | – | 3 (Herbicidal rate of 40% or more and less than 70%) | – | – | – | – | herbicidal effect on J: blackgrass [2, 14]: 0 (Herbicidal rate of 5% or less (almost no effect)); H: barnyard grass, herbicidal effect (criteria 0-5) [3, 15]: 5 (Herbicidal rate of 90% or more (almost completely withered)); O: lambsquarters, herbicidal effect (criteria 0-5) [4, 15]: 5 (Herbicidal rate of 90% or more (almost completely withered)); herbicidal effect on L: windgrass [5, 14]: 0 (Herbicidal rate of 5% or less (almost no effect)); herbicidal effect on D: Chinese sprangletop [6, 14]: 2 (Herbicidal rate of 20% or more and less than 40%); herbicidal effect on R: persian speedwell [7, 14]: 5 (Herbicidal rate of 90% or more (almost completely withered)); Q: false cleavers, herbicidal effect (criteria 0-5) [10, 15]: 5 (Herbicidal rate of 90% or more (almost completely withered)); F: southern crabgrass, herbicidal effect (criteria 0-5) [12, 15]: 4 (Herbicidal rate of 70% or more and less than 90%)
CCCC(=O)Oc1c(C)nn(C)c(=O)c1-c1c(-c2ccc(F)cc2OCC)oc2ccc(C)cc12 [9-010] | – | – | – | – | – | – | – | – | – | – | – | – | Herbicidal effect, C: oval-leafed pondweed [1, 16]: 3 (Herbicidal rate of 40% or more and less than 70%); J: blackgrass, herbicidal effect grade [2, 16]: 0 (Herbicidal rate of 5% or less (almost no effect)); herbicidal effect on barnyard grass (H) [3, 17]: 3 (Herbicidal rate of 40% or more and less than 70%); herbicidal effect on lambsquarters (O) [4, 17]: 3 (Herbicidal rate of 40% or more and less than 70%); L: windgrass, herbicidal effect grade [5, 16]: 0 (Herbicidal rate of 5% or less (almost no effect)); Herbicidal effect on D (Chinese sprangletop), foliage application [6, 16]: 5 (Herbicidal rate of 90% or more (almost completely withered)); R: persian speedwell, herbicidal effect grade [7, 16]: 0 (Herbicidal rate of 5% or less (almost no effect)); Herbicidal effect, A: late watergrass [8, 16]: 5 (Herbicidal rate of 90% or more (almost completely withered)); Herbicidal effect, B: Japanese bulrush [9, 16]: 3 (Herbicidal rate of 40% or more and less than 70%); herbicidal effect on false cleavers (Q) [10, 17]: 3 (Herbicidal rate of 40% or more and less than 70%); herbicidal effect rating, C: oval-leafed pondweed ([11]; AAH 246 g/ha): 2 (Herbicidal rate of 20% or more and less than 40%); herbicidal effect on southern crabgrass (F) [12, 17]: 3 (Herbicidal rate of 40% or more and less than 70%)
